Reference: patent publication US20230102554A1 (GB002, INC., priority 2019, published 2023)
pIC50: −log10 of the molar value.

Experiments:
[1] = molecular target: T1, Human PDGFRβ, cytoplasmic domain (GST-PDGFRβ) (Homo sapiens, UniProt P09619); test: Human PDGFRβ biochemical inhibition assay (off-chip Mobility Shift Assay)
T1 construct: made in house
Description: Human PDGFRβ Biochemical Inhibition Assay
The compounds described herein were tested for the ability to inhibit activity of PDGFRβ which was achieved via use of an off-chip Mobility Shift Assay (MSA). Human PDGFRβ, cytoplasmic domain [557-1106 (end) amino acids of accession number NP_002600.1 (SEQ ID NO: 3)] was expressed as N-terminal GST-fusion protein (88 kDa) using baculovirus expression system (SEQ ID NO: 4). GST-PDGFRβ was purified by using glutathione sepharose chromatography. Test compounds were dissolved in and diluted with dimethylsulfoxide (DMSO) to achieve 1 mM concentration. Then the solution was further diluted 25-fold with assay buffer to make the final test compound solution. The reference compound, Staurosporine, used as the assay positive control was prepared similarly. The 4× compound solution/substrate (CSKtide, 1000 nM)/ATP (Km ATP)/Mg Metal (5 mM) was prepared with kit buffer (20 mM HEPES, 0.01% Triton X-100, 5 mM DTT, pH 7.5), and 2× kinase solution was prepared with assay buffer (20 mM HEPES, 0.01% Triton X-100, 1 mM DTT, pH 7.5). The 5 μL of 4× compound solution, […] of 4× Substrate/ATP/Metal solution, and […] of 2× kinase solution were mixed and incubated in a well of polypropylene 384 well microplate for 1 hour at room temperature. […] of Termination Buffer (QuickScout Screening Assist MSA; Carna Biosciences) was added to the well. The reaction mixture was applied to LabChip™ system (Perkin Elmer), and the product and substrate peptide peaks were separated and quantitated. The kinase reaction was evaluated by the product ratio calculated from peak heights of product(P) and substrate(S) peptides (P/(P+S)). The readout value of reaction control (complete reaction mixture) was set as a 0% inhibition, and the readout value of background (Enzyme(−)) was set as a 100% inhibition, then the percent inhibition of each test solution was calculated.
With respect to PDGFRβ activity: “+++” denotes an IC50 of less than 300 nM; “++” denotes an IC50 of from 300 nM to less than 1000 nM; and “+” denotes an IC50 of 1000 nM or more.

[2] = molecular target: T2, Human PDGFRα, cytoplasmic domain (GST-PDGFRα) (Homo sapiens, UniProt P16234); test: Human PDGFRα biochemical inhibition assay (off-chip Mobility Shift Assay)
T2 construct: made in house
T2 sequence (P16234 550-1089 T674I): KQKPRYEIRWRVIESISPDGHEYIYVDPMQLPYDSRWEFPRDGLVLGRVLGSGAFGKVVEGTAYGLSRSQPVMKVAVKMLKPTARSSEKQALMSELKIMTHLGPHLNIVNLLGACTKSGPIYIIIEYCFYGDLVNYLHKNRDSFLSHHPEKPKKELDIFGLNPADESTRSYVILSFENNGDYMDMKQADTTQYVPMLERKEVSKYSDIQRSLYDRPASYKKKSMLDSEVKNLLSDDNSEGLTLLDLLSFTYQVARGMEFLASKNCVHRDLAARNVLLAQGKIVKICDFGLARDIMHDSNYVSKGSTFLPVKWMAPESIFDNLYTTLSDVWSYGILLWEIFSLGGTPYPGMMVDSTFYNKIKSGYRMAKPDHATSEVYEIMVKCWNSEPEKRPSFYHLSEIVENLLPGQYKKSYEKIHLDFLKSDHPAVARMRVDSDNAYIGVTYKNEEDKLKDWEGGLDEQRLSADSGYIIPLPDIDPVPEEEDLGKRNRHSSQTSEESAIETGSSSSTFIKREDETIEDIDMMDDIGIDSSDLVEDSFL

T1 sequence (P09619 with tags, fused parts or gaps): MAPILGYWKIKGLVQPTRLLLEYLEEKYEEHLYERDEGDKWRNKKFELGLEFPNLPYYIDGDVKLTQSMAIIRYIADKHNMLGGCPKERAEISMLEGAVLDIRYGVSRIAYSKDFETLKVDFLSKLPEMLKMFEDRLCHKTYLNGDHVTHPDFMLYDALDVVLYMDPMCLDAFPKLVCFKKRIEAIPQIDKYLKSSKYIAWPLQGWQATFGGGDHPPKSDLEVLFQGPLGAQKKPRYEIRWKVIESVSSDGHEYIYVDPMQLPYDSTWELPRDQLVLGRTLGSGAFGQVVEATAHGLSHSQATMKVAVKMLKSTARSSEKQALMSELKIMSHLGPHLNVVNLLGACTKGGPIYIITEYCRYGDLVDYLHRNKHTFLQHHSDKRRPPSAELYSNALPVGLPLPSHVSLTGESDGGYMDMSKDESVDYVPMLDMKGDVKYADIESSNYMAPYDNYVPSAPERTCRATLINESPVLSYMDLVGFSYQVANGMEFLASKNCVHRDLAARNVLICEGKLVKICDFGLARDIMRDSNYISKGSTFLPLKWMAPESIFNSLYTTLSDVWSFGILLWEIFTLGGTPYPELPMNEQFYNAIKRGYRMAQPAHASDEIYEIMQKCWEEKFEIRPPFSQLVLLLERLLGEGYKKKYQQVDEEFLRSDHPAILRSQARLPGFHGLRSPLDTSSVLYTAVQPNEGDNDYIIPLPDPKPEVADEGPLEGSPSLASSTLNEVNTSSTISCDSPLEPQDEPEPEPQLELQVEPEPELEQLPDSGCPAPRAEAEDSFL

| Compound | pIC50 [1] | pIC50 [2] |
| --- | --- | --- |
| Cc1cncc(C(=O)Nc2cccc([C@H](C)Nc3cnc4ccn(C)c4c3)c2)c1 [Compound 80, (S)-5-methyl-N-(3-(1-((1-methyl-1H-pyrrolo[3,2-b]pyridin-6-yl)amino)ethyl)phenyl)nicotinamide] | ≤ 6.00 | 6.00 to 6.52 |
| COc1ccc(-n2ccc3ncc(N[C@@H](C)c4cccc(NC(=O)c5cncc(C)c5)c4)cc32)cc1OC [Compound 6, (S)—N-(3-(1-((1-(3,4-dimethoxyphenyl)-1H-pyrrolo[3,2-b]pyridin-6-yl)amino)ethyl)phenyl)-5-methylnicotinamide] | ≤ 6.00 | > 6.52 |
| CCc1ncc(C(=O)Nc2cccc([C@H](C)Nc3cnc4cn(CC)nc4n3)c2)s1 [Compound 341, (S)-2-ethyl-N-(3-(1-((2-ethyl-2H-pyrazolo[3,4-b]pyrazin-6-yl)amino)ethyl)phenyl)thiazole-5-carboxamide] | > 6.52 | > 6.52 |
| Cc1cc(C(=O)Nc2cccc([C@H](C)Nc3cnc4cnn(C)c4n3)c2)cnc1F [Compound 192, (S)-6-fluoro-5-methyl-N-(3-(1-((1-methyl-1H-pyrazolo[3,4-b]pyrazin-6-yl)amino)ethyl)phenyl)nicotinamide] | > 6.52 | > 6.52 |
| CCn1cc2ncc(N[C@@H](C)c3cccc(NC(=O)c4cnc(CN5CC6(COC6)C5)c(F)c4)c3)nc2n1 [Compound 500, (S)-6-((2-oxa-6-azaspiro[3.3]heptan-6-yl)methyl)-N-(3-(1-((2-ethyl-2H-pyrazolo[3,4-b]pyrazin-6-yl)amino)ethyl)phenyl)-5-fluoronicotinamide] | ≤ 6.00 | ≤ 6.00 |
| CCn1cc2ncc(N[C@@H](C)c3cccc(NC(=O)c4ccc(C)o4)c3)nc2n1 [Compound 369, (S)-N-(3-(1-((2-ethyl-2H-pyrazolo[3,4-b]pyrazin-6-yl)amino)ethyl)phenyl)-5-methylfuran-2-carboxamide] | ≤ 6.00 | ≤ 6.00 |
| C[C@H](Nc1cnc2cn[nH]c2n1)c1cccc(NC(=O)c2cncc(C(C)(C)O)c2)c1 [Compound 95, (S)-N-(3-(1-((1H-pyrazolo[3,4-6]pyrazin-6-yl)amino)ethyl)phenyl)-5-(2-hydroxypropan-2-yl)nicotinamide] | > 6.52 | > 6.52 |
| COc1cncc(C(=O)Nc2cccc([C@H](C)Nc3cnc4[nH]cc(C)c4n3)c2)c1 [Compound 555, (S)-5-methoxy-N-(3-(1-((7-methyl-5H-pyrrolo[2,3-b]pyrazin-2-yl)amino)ethyl)phenyl)nicotinamide] | > 6.52 | > 6.52 |
| CCn1cc2ncc(N[C@@H](C)c3cc(NC(=O)c4cncc(C)c4)ccc3C)cc2n1 [Compound 501, (S)-N-(3-(1-((2-ethyl-2H-pyrazolo[4,3-b]pyridin-6-yl)amino)ethyl)-4-methylphenyl)-5-methylnicotinamide] | > 6.52 | > 6.52 |
| C[C@H](Nc1cnc2cn[nH]c2n1)c1cccc(NC(=O)c2cncc(C3CCC3)c2)c1 [Compound 96, (S)-N-(3-(1-((1H-pyrazolo[3,4-b]pyrazin-6-yl)amino)ethyl)phenyl)-5-cyclobutylnicotinamide] | > 6.52 | > 6.52 |
| CCn1cc2ncc(N[C@@H](C)c3cccc(NC(=O)c4ccc(CN5CCCC5)c(C(F)(F)F)c4)c3)nc2n1 [Compound 425, (S)-N-(3-(1-((2-ethyl-2H-pyrazolo[3,4-b]pyrazin-6-yl)amino)ethyl)phenyl)-4-(pyrrolidin-1-ylmethyl)-3-(trifluoromethyl)benzamide] | > 6.52 | > 6.52 |
| C[C@H](Nc1cnc2cnn(C)c2n1)c1cccc(NC(=O)c2ccn(CC(F)F)n2)c1 [Compound 158, (S)-1-(2,2-difluoroethyl)-N-(3-(1-((1-methyl-1H-pyrazolo[3,4-b]pyrazin-6-yl)amino)ethyl)phenyl)-1H-pyrazole-3-carboxamide] | 6.00 to 6.52 | > 6.52 |
| CCn1cc2ncc(N[C@@H](C)c3cccc(NC(=O)c4ccc(C)c(F)c4)c3)nc2n1 [Compound 344, (S)-N-(3-(1-((2-ethyl-2H-pyrazolo[3,4-b]pyrazin-6-yl)amino)ethyl)phenyl)-3-fluoro-4-methylbenzamide] | > 6.52 | > 6.52 |
| Cc1cncc(C(=O)Nc2cccc([C@H](C)Nc3cncc4c3cnn4-c3cnn(C)c3)c2)c1 [Compound 21] | > 6.52 | > 6.52 |
| CCn1cc2ncc(N[C@@H](C)c3cc(NC(=O)c4ccc(CN5CCN(C)CC5)c(C)c4)ccc3C)nc2n1 [Compound 524, (S)-N-(3-(1-((2-ethyl-2H-pyrazolo[3,4-b]pyrazin-6-yl)amino)ethyl)-4-methylphenyl)-3-methyl-4-((4-methylpiperazin-1-yl)methyl)benzamide] | > 6.52 | > 6.52 |
| CSc1cncc(C(=O)Nc2cccc([C@H](C)Nc3cnc4cnn(C)c4n3)c2)c1 [Compound 225] | > 6.52 |  |

The remaining lines, values ahead:

| pIC50 [1] | pIC50 [2] | Compound |
| --- | --- | --- |
| 6.00 to 6.52 | > 6.52 | CCn1cc2ncc(N[C@@H](C)c3cccc(NC(=O)Cc4cc(F)cc(F)c4)c3)nc2n1 [Compound 643, (S)-2-(3,5-difluorophenyl)-N-(3-(1-((2-ethyl-2H-pyrazolo[3,4-b]pyrazin-6-yl)amino)ethyl)phenyl)acetamide] |
| 6.00 to 6.52 | > 6.52 | CCn1cc2ncc(N[C@@H](C)c3cc(NC(=O)Cc4ccc(C5CCC5)cn4)ccc3C)nc2n1 [Compound 669, (S)-2-(5-cyclobutylpyridin-2-yl)-N-(3-(1-((2-ethyl 2H-pyrazolo[3,4-b]pyrazin-6-yl)amino)ethyl)-4-methylphenyl) acetamide] |
| > 6.52 | > 6.52 | Cc1cc2ncc(N[C@@H](C)c3cccc(NC(=O)c4ccc(C5CC5)nc4)c3)nc2s1 [Compound 610, (S)-6-cyclopropyl-N-(3-(1-((6-methylthieno[2,3-b]pyrazin-3-yl)amino)ethyl)phenyl) nicotinamide] |
| > 6.52 | > 6.52 | CCn1cc2ncc(N[C@@H](C)c3cc(NC(=O)Cc4ccc(F)cn4)ccc3C)nc2n1 [Compound 656, (S)-N-(3-(1-((2-ethyl-2H-pyrazolo[3,4-b]pyrazin-6-yl)amino)ethyl)-4-methylphenyl)-2-(5-fluoropyridin-2-yl) acetamide] |
| 6.00 to 6.52 | > 6.52 | CCn1cc2ncc(N[C@@H](C)c3cc(NC(=O)Cc4cncc(Cl)c4)ccc3F)nc2n1 [Compound 663, (S)-2-(5-chloropyridin-3-yl)-N-(3-(1-((2-ethyl-2H-pyrazolo[3,4-b]pyrazin-6-yl)amino)ethyl)-4-fluorophenyl)acetamide] |
| > 6.52 | 6.00 to 6.52 | C[C@H](Nc1cnc2[nH]cc(-c3cnn(C)c3)c2n1)c1cccc(NC(=O)c2ccc(C(F)(F)F)nc2)c1 [Compound 580, (S)-N-(3-(1-((7-(1-methyl-1H-pyrazol-4-yl)-5H-pyrrolo[2,3-b]pyrazin-2-yl)amino)ethyl)phenyl)-6-(trifluoromethyl) nicotinamide] |
| > 6.52 | > 6.52 | C[C@H](Nc1cnc2[nH]ccc2n1)c1cccc(NC(=O)c2ccc(OC(F)F)nc2)c1 [Compound 595, (S)-N-(3-(1-((5H-pyrrolo[2,3-b]pyrazin-2-yl)amino)ethyl)phenyl)-6-(difluoromethoxy)nicotinamide] |
